Literature values as cited in patent US7057165B2, “Probe for mass spectrometry” (Sense Proteomic Ltd., priority 2001, dated 2006).

Molecular target: T1, lectin from Arachis hypogea (Arachis hypogaea, UniProt P02872)
T1 construct: biotin (biotinylated lectin)
T1 sequence (P02872 24-259 limits assumed): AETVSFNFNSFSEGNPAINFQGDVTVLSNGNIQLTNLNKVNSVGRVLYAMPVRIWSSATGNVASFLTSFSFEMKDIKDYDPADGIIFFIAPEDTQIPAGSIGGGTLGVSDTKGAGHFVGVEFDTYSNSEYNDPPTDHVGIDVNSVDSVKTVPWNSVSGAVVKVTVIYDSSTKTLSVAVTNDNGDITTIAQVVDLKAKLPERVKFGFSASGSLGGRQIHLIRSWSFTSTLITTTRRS

OC[C@H]1O[C@@H](O[C@H]2[C@H](O)[C@@H](O)C(O)O[C@@H]2CO)[C@H](O)[C@@H](O)[C@H]1O (stereo partly shown) [lactose]
binding constant for this lectin: millimolar range
